Test system: P. falciparum
Conditions: in vivo

**Q.** How did the Antigenicity turn out when “Asn-Pro-Asn-Ala-Asn-(Apro-Asn-Ala-Asn-Pro-Asn-Ala-Asn-Pro-Asn-Glu)cyclo-Asn-Pro-Asn-Ala attached to a PE moiety [UK39]” was run?
**A.** Its Antigenicity is “excellent”.

Source: patent publication US7569541B2 (priority 2003, dated 2009)
